# Assay results: patent US20130216630A1, “BIOMATERIALS FOR USE IN METHODS OF BONE REPLACEMENT THERAPY” (UNIVERSITY OF WITWATERSRAND, JOHANNESBURG, priority 2010, published 2013)
# “Also recorded” adds a separate entry of the source.
# Key:
# [1] = test system: rectus abdominis muscle of Papio ursinus; experiment: Heterotopic implantation of macroporous 7% HA/CC constructs in rectus abdominis muscle, histological evaluation of bone induction; format: in vivo; conditions: coral-derived 7% HA/CC macroporous constructs pre-loaded with 0.24 mg zoledronate; intramuscular (rectus abdominis) implantation in adult Papio ursinus; harvested 90 days after implantation
# Experimental: Topographical modification of the implanted constructs may be of the utmost importance for the differentiation of myoblastic/myoendothelial and/or perivascular/endothelial stem cells into osteoblastic-like cells. In order to study the effect of the osteoclastic activity on cell differentiation and the induction of bone formation, samples of solid porous construct compositions, typically macroporous hydroxyapatites were pre-loaded with 0.24 mg of the osteoclastic inhibitor biphosphonate zoledronate (Zometa®). Samples with and without zoledronate were then implanted in the rectus abdominis muscle of Papio ursinus.
# A biomaterial to act, in use, as a platform for bone growth induction and/or bone growth was prepared. Said solid porous composition in the form of macroporous hydroxyapatite replicas of the calcium carbonate exoskeletal microstructure of the coral genus Goniopora was prepared by hydrothermal chemical exchange with phosphate [(5) Ripamonti, U. J Bone Joint Surg Am 1991; 73:692-703; (6) Ripamonti U, Richter P W, Nilen R W N, Renton L., J Cell Mol Med 2008; 12:1029-48., (7) Shors EC, Orthop Clin North Am 1999:30:599-613; (8) Ripamonti U, van den Heever B, van Wyk J., Matrix 1993;13:491-502; (9) Ripamonti, R. M. Klar, L. F. Renton, C Ferretti., Biomaterials, 31, 6400-6410 (2010). The entirety of which are incorporated by reference herein]. […]
# [2] = test system: osteogenic protein-1 (OP-1) gene expression; experiment: qTR-PCR analyses of harvested biomaterial constructs; format: in vivo; conditions: harvested constructs pre-treated with 0.24 mg zoledronate; Papio ursinus rectus abdominis
# Excerpt: It is important to note that in specimens with bone formation by induction there is always expression of the OP-1 gene, i.e. there is a direct correlation between the induction of bone and the expression of the OP-1 gene.
structure (smiles),measurement,setting,value
O=P(O)(O)C(O)(Cn1ccnc1)P(=O)(O)O [zoledronate],induction of bone formation / differentiation of bone within macroporous spaces (histology),[1],"lack of bone induction and/or bone growth; also recorded: either did not induce the differentiation of bone at all, or the induction was considerably inhibited; also recorded: In two specimens, the spontaneous induction of bone formation was altogether absent; also recorded: minor amounts of bone had formed by induction at the periphery; also recorded: very limited bone formation"
same,osteogenic protein-1 (OP-1) gene expression,[2],dramatic reduction
